The values that follow come from ChEMBL document CHEMBL1152596, “Inhibition of serotonin and norepinephrine reuptake and inhibition of phosphodiesterase by multi-target inhibitors as potential agents for depression” (Bioorg Med Chem, 2009).

pIC50, pKi: −log10 of the molar value. Bounds are passed on as bounds.

T2 sequence (Q01959 whole entry): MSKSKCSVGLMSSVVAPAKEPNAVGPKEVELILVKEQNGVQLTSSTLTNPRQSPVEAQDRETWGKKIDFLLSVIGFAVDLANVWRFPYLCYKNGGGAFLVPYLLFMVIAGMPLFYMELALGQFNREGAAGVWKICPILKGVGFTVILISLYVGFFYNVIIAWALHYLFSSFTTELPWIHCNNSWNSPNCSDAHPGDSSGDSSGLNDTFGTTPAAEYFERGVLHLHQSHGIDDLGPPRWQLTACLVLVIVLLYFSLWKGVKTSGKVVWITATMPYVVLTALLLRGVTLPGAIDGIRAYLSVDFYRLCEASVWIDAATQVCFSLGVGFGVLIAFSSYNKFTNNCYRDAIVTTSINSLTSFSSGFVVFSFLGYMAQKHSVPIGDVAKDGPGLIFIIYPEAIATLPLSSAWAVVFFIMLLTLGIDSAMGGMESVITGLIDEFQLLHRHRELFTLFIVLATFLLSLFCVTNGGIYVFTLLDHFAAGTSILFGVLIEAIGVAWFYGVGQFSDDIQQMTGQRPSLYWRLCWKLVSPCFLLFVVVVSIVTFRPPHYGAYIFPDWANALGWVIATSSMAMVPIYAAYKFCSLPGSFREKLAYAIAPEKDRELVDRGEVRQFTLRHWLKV

In one assay the target is T1, Sodium-dependent serotonin transporter (Homo sapiens, UniProt P31645). Nature of the assay: biochemical.
T1 sequence (P31645 whole entry): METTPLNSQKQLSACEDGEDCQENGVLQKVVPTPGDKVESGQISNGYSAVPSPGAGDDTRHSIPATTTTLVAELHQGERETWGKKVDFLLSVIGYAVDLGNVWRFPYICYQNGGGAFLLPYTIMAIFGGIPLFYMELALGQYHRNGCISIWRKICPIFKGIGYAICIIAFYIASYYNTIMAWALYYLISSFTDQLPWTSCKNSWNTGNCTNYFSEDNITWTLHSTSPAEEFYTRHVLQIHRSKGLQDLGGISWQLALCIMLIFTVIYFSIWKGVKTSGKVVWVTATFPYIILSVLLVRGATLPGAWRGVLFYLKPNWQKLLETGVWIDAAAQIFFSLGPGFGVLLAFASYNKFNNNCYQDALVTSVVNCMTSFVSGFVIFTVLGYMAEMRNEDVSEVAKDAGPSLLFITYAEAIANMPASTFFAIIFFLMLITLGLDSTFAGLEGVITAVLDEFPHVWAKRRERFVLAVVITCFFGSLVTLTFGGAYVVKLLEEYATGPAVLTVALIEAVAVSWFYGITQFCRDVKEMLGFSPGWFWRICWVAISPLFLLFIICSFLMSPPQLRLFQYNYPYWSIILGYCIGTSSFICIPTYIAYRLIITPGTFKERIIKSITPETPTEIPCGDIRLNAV
Description: Displacement of [125I]RTI-55 from human recombinant SERT expressed in HEK293 cells
Usually pKi stands for the negative decadic logarithm of the Ki, by convention in mol/L. Higher therefore signals a low Ki. Regarding `NCC[C@@H](Oc1cccc2ccccc12)c1cccs1` [R-NORDULOXETINE], the pKi is 8.08.
The same measure, in the same setting: under `COc1ccc(C2=NN(CCCCCNCC[C@H](Oc3cccc4ccccc34)c3cccs3)C(=O)[C@@H]3CC=CC[C@H]23)cc1OC` stands 6.14; under `COc1ccc(C2=NN(CCCCCNCC[C@@H](Oc3cccc4ccccc34)c3cccs3)C(=O)[C@@H]3CC=CC[C@H]23)cc1OC`, 6.90; under `COc1ccc(C2=NNC(=O)[C@@H]3CC=CC[C@H]23)cc1OC` (relative stereo), below 4.00.
On the same count and under the same terms, for `NCC[C@H](Oc1cccc2ccccc12)c1cccs1` [(S)-NORDULOXETINE] the value was 7.74.

A further assay has as its target T2, Sodium-dependent dopamine transporter (Homo sapiens, UniProt Q01959). Kind of assay: biochemical.
Description: Displacement of [125I]RTI-55 from human recombinant DAT expressed in HEK293 cells
Compound `NCC[C@@H](Oc1cccc2ccccc12)c1cccs1` [R-NORDULOXETINE] showed a pKi of 5.45.
On the same count and under the same terms, for `COc1ccc(C2=NN(CCCCCNCC[C@H](Oc3cccc4ccccc34)c3cccs3)C(=O)[C@@H]3CC=CC[C@H]23)cc1OC` the value was 5.34; for `COc1ccc(C2=NN(CCCCCNCC[C@@H](Oc3cccc4ccccc34)c3cccs3)C(=O)[C@@H]3CC=CC[C@H]23)cc1OC`, 6.07.
Take `COc1ccc(C2=NNC(=O)[C@@H]3CC=CC[C@H]23)cc1OC` (relative stereo): the pKi is below 4.00.
For the compound `NCC[C@H](Oc1cccc2ccccc12)c1cccs1` [(S)-NORDULOXETINE], the pKi is below 5.00.

The target in a further assay is T2, Sodium-dependent dopamine transporter.
Experiment: not given
For orientation: pIC50 means −log10 of the IC50, conventionally taken in molar units. A higher pIC50 goes with a low IC50. For `NCC[C@@H](Oc1cccc2ccccc12)c1cccs1` [R-NORDULOXETINE], the pIC50 was below 5.00.
The same measure, in the same setting: under `COc1ccc(C2=NN(CCCCCNCC[C@H](Oc3cccc4ccccc34)c3cccs3)C(=O)[C@@H]3CC=CC[C@H]23)cc1OC` stands 5.18; under `COc1ccc(C2=NN(CCCCCNCC[C@@H](Oc3cccc4ccccc34)c3cccs3)C(=O)[C@@H]3CC=CC[C@H]23)cc1OC`, 5.75.
Still for that read-out and setting: under `COc1ccc(C2=NNC(=O)[C@@H]3CC=CC[C@H]23)cc1OC` (relative stereo) stands below 4.00.
For `NCC[C@H](Oc1cccc2ccccc12)c1cccs1` [(S)-NORDULOXETINE], the pIC50 is below 5.00.

Another assay concerns the target T1, Sodium-dependent serotonin transporter.
Experiment: not given
`NCC[C@@H](Oc1cccc2ccccc12)c1cccs1` [R-NORDULOXETINE] showed a pIC50 of 8.17.
On the same count and under the same terms, under `COc1ccc(C2=NN(CCCCCNCC[C@H](Oc3cccc4ccccc34)c3cccs3)C(=O)[C@@H]3CC=CC[C@H]23)cc1OC` stands 6.39.
The same measure, in the same setting: for `COc1ccc(C2=NN(CCCCCNCC[C@@H](Oc3cccc4ccccc34)c3cccs3)C(=O)[C@@H]3CC=CC[C@H]23)cc1OC` the value was 6.35; for `COc1ccc(C2=NNC(=O)[C@@H]3CC=CC[C@H]23)cc1OC` (relative stereo), below 4.00; for `NCC[C@H](Oc1cccc2ccccc12)c1cccs1` [(S)-NORDULOXETINE], 7.59.

For a further assay, the target named is T3, Sodium-dependent noradrenaline transporter (Homo sapiens, UniProt P23975). Nature of the assay: biochemical.
T3 sequence (P23975 whole entry): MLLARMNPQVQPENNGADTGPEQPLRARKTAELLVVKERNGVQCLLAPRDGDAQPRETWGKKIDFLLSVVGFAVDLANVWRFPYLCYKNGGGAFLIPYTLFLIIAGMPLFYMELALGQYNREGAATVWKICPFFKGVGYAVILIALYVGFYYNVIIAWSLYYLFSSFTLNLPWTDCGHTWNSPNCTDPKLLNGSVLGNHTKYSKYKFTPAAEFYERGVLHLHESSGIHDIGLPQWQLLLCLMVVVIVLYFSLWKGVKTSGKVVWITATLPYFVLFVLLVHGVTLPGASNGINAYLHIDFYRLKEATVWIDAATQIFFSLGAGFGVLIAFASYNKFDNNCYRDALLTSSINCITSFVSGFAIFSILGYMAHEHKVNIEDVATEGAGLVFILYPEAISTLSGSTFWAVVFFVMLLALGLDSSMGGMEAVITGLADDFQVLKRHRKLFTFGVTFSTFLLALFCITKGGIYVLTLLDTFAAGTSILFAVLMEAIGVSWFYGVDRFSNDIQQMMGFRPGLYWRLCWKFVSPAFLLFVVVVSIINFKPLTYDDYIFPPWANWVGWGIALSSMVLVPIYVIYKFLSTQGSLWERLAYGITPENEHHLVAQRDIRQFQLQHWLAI
Description: Displacement of [125I]RTI-55 from human recombinant NET expressed in HEK293 cells by scintillation counting
For the compound `NCC[C@@H](Oc1cccc2ccccc12)c1cccs1` [R-NORDULOXETINE], the pKi was 6.02.
The compound `COc1ccc(C2=NN(CCCCCNCC[C@H](Oc3cccc4ccccc34)c3cccs3)C(=O)[C@@H]3CC=CC[C@H]23)cc1OC` had a pKi below 4.00.
The compound `COc1ccc(C2=NN(CCCCCNCC[C@@H](Oc3cccc4ccccc34)c3cccs3)C(=O)[C@@H]3CC=CC[C@H]23)cc1OC` had a negative logarithm of the Ki (pKi) of 5.49.
Same read-out and setting: for `COc1ccc(C2=NNC(=O)[C@@H]3CC=CC[C@H]23)cc1OC` (relative stereo) the value was below 4.00.
In turn, `NCC[C@H](Oc1cccc2ccccc12)c1cccs1` [(S)-NORDULOXETINE] had a pKi of 5.62.

The target of a further assay is T3, Sodium-dependent noradrenaline transporter.
Experiment: not given
For `NCC[C@@H](Oc1cccc2ccccc12)c1cccs1` [R-NORDULOXETINE], the pIC50 was 6.73.
Same read-out and setting: for `COc1ccc(C2=NN(CCCCCNCC[C@H](Oc3cccc4ccccc34)c3cccs3)C(=O)[C@@H]3CC=CC[C@H]23)cc1OC` the value was 5.66; for `COc1ccc(C2=NN(CCCCCNCC[C@@H](Oc3cccc4ccccc34)c3cccs3)C(=O)[C@@H]3CC=CC[C@H]23)cc1OC`, 5.68.
On to `COc1ccc(C2=NNC(=O)[C@@H]3CC=CC[C@H]23)cc1OC` (relative stereo), for which the pIC50 is below 4.00.
Same read-out and setting: for `NCC[C@H](Oc1cccc2ccccc12)c1cccs1` [(S)-NORDULOXETINE] the value was 6.35.

In another assay the target is 3',5'-cyclic-AMP phosphodiesterase 4D (Homo sapiens, UniProt Q08499).
Sequence of 3',5'-cyclic-AMP phosphodiesterase 4D (Q08499 whole entry): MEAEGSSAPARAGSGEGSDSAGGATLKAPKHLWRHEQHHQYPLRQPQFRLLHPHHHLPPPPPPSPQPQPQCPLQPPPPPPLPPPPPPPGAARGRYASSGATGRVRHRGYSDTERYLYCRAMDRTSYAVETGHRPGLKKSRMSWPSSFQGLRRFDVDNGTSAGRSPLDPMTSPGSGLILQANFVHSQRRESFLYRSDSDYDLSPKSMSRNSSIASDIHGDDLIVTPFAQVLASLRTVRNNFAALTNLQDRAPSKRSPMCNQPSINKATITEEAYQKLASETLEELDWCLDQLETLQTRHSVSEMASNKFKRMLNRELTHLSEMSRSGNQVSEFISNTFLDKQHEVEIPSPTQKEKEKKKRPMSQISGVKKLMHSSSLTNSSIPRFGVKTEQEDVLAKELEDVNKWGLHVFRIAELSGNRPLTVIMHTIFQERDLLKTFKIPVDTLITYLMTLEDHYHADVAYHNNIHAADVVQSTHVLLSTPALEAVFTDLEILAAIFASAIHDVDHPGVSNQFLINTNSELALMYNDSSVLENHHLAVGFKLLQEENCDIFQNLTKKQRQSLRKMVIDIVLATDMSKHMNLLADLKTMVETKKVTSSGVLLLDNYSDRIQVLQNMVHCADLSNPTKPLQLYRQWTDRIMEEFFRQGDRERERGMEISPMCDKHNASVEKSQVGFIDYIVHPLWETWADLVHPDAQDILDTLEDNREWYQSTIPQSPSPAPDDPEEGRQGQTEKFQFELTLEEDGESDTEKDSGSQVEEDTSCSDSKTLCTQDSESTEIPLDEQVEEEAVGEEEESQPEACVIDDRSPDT
Experiment: not given
On to `NCC[C@@H](Oc1cccc2ccccc12)c1cccs1` [R-NORDULOXETINE], for which the pIC50 is below 4.00.
`COc1ccc(C2=NN(CCCCCNCC[C@H](Oc3cccc4ccccc34)c3cccs3)C(=O)[C@@H]3CC=CC[C@H]23)cc1OC` had a pIC50 of 7.64.
On the same count and under the same terms, for `COc1ccc(C2=NN(CCCCCNCC[C@@H](Oc3cccc4ccccc34)c3cccs3)C(=O)[C@@H]3CC=CC[C@H]23)cc1OC` the value was 7.35.
`COc1ccc(C2=NNC(=O)[C@@H]3CC=CC[C@H]23)cc1OC` (relative stereo) had a pIC50 of 6.67.
On the same count and under the same terms, under `NCC[C@H](Oc1cccc2ccccc12)c1cccs1` [(S)-NORDULOXETINE] stands below 4.00.
